# Literature values, collected in paper doi:10.1101/2025.04.01.646723v2 (bioRxiv, 2025).
# System: N. benthamiana leaves
# Conditions: DCIP, 100 μM, at least 5 biological replicates, ref [15]
substance,measurement,value
nona-arginine [R9],cellular internalization (in words),efficiently internalized
